Read-outs that look alike come from different tables or passages of the source.
Experiments:
[1] = test system: Burkholderia glumae; format: in vivo
[2] = test system: Burkholderia glumae; conditions: rice, 150 g ai/ha, 1 spray, 29 days after the 1st spray
[3] = rice at harvest, 150 g ai/ha, 2 sprays

| Structure (SMILES) | Yield (% of untreated) [1, 3] | Yield T/ha [1, 3] | % efficacy (Abbott), Burkholderia glumae incidence on panicles ([1]; rice, 150 g ai/ha, 2 sprays, 44 days after the 2nd spray) | % efficacy (Abbott), Burkholderia glumae incidence on panicles [2] | final yield increase ([1]; rice, harvest trial, Isotianil treated plots) |
| --- | --- | --- | --- | --- | --- |
| CCC1(C(=O)N[C@H](C)c2ccc(Cl)cc2)C(C)C1(Cl)Cl (some centres unmarked) [CARPROPAMID] | 108% | 9.06 T/ha | 43% | 36% | – |
| N#Cc1ccccc1NC(=O)c1snc(Cl)c1Cl [Isotianil, isotianil] | – | – | – | – | about 20% |

From patent US20150011394A1 (priority 2012, published 2015)
